Experimental data published in patent US9738634B2, “Heterocyclic amide compound and herbicide” (SYNGENTA PARTICIPATIONS AG, priority 2013, dated 2017).

What was measured:
Format in all cases: in vivo
chickweed = test: Test Example 3: weedkilling efficacy through soil treatment; N: chickweed; settings: soil treatment, treatment dosage 320 g/ha
Method in brief: (§1)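 Crop and weed responses were judged three weeks after a uniform surface spray of the water-diluted emulsion at the given g/ha rate. Seeds sat beneath about 1.5 cm of sterilized diluvial soil, and boxes stood in a greenhouse at 25 to 30° C.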

birds-eye speedwell = test: Test Example 3: weedkilling efficacy through soil treatment; p: birds-eye speedwell; settings: soil treatment, treatment dosage 320 g/ha
Method in brief: as §1

fig-leafed goosefoot = test: Test Example 3: weedkilling efficacy through soil treatment; M: fig-leafed goosefoot; settings: soil treatment, treatment dosage 320 g/ha
Method in brief: as §1

bulrush [1] = test: Test Example 2: weedkilling efficacy, growth period weed treatment in the submerged state; B: bulrush; settings: treatment dosage 320 g/ha
Method in brief: (§2)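 Weeds treated at the 1-2 leaf stage by application of diluted emulsion onto floodwater (4 cm depth, alluvial soil) at specified g/ha. Grown in greenhouse at 25 to 30° C; herbicidal effect rated three weeks after treatment.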

directly sown rice = test: Test Example 3: soil treatment, effect on crop; b: directly sown rice; settings: soil treatment, treatment dosage 320 g/ha
Method in brief: as §1

transplanted rice = test: Test Example 1: preemergent weed treatment in the submerged state, effect on crop; a: transplanted rice; settings: treatment dosage 320 g/ha
Method in brief: (§3)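 Pre-emergence application onto floodwater (4 cm, alluvial soil) on the day of sowing, dose expressed as g/ha from diluted emulsion formulation. Weeds sown with 2.5-leaf transplanted rice as crop; plants held at 25–30 °C in greenhouse and scored against assessment criteria after 3 weeks.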

common wind-grass = test: Test Example 3: weedkilling efficacy through soil treatment; J: common wind-grass; settings: soil treatment, treatment dosage 320 g/ha
Method in brief: as §1

crabgrass = test: Test Example 3: weedkilling efficacy through soil treatment; D: crabgrass; settings: soil treatment, treatment dosage 320 g/ha
Method in brief: as §1

Indian mallow = test: Test Example 3: weedkilling efficacy through soil treatment; K: Indian mallow; settings: soil treatment, treatment dosage 320 g/ha
Method in brief: as §1

bulrush [2] = test: Test Example 1: weedkilling efficacy, preemergent weed treatment in the submerged state; B: bulrush; settings: treatment dosage 320 g/ha
Method in brief: as §3

corn = test: Test Example 3: soil treatment, effect on crop; c: corn; settings: soil treatment, treatment dosage 320 g/ha
Method in brief: as §1

soybean = test: Test Example 3: soil treatment, effect on crop; d: soybean; settings: soil treatment, treatment dosage 320 g/ha
Method in brief: as §1

green foxtail = test: Test Example 3: weedkilling efficacy through soil treatment; E: green foxtail; settings: soil treatment, treatment dosage 320 g/ha
Method in brief: as §1

redroot pigweed = test: Test Example 3: weedkilling efficacy through soil treatment; L: redroot pigweed; settings: soil treatment, treatment dosage 320 g/ha
Method in brief: as §1

beet = test: Test Example 3: soil treatment, effect on crop; f: beet; settings: soil treatment, treatment dosage 320 g/ha
Method in brief: as §1

wheat = test: Test Example 3: soil treatment, effect on crop; e: wheat; settings: soil treatment, treatment dosage 320 g/ha
Method in brief: as §1

black-grass = test: Test Example 3: weedkilling efficacy through soil treatment; H: black-grass; settings: soil treatment, treatment dosage 320 g/ha
Method in brief: as §1

wild oat = test: Test Example 3: weedkilling efficacy through soil treatment; G: wild oat; settings: soil treatment, treatment dosage 320 g/ha
Method in brief: as §1

Italian ryegrass = test: Test Example 3: weedkilling efficacy through soil treatment; I: Italian ryegrass; settings: soil treatment, treatment dosage 320 g/ha
Method in brief: as §1

catchweed = test: Test Example 3: weedkilling efficacy through soil treatment; O: catchweed; settings: soil treatment, treatment dosage 320 g/ha
Method in brief: as §1

rapeseed = test: Test Example 3: soil treatment, effect on crop; g: rapeseed; settings: soil treatment, treatment dosage 320 g/ha
Method in brief: as §1

oval-leafed pondweed [3] = test: Test Example 2: weedkilling efficacy, growth period weed treatment in the submerged state; C: oval-leafed pondweed; settings: treatment dosage 320 g/ha
Method in brief: as §2

barnyard grass [4] = test: Test Example 1: weedkilling efficacy, preemergent weed treatment in the submerged state; A: barnyard grass; settings: treatment dosage 320 g/ha
Method in brief: as §3

oval-leafed pondweed [5] = test: Test Example 1: weedkilling efficacy, preemergent weed treatment in the submerged state; C: oval-leafed pondweed; settings: treatment dosage 320 g/ha
Method in brief: as §3

barnyard grass [6] = test: Test Example 2: weedkilling efficacy, growth period weed treatment in the submerged state; A: barnyard grass; settings: treatment dosage 320 g/ha
Method in brief: as §2

barnyard grass [7] = test: Test Example 3: weedkilling efficacy through soil treatment; F: barnyard grass; settings: soil treatment, treatment dosage 320 g/ha
Method in brief: as §1

| SMILES | N: chickweed, weedkilling efficacy grade (chickweed) | P: birds-eye speedwell, weedkilling efficacy grade (birds-eye speedwell) | M: fig-leafed goosefoot, weedkilling efficacy grade (fig-leafed goosefoot) | B (bulrush) weedkilling efficacy grade (bulrush [1]) | b: directly sown rice, effect on crop grade (directly sown rice) | a: transplanted rice, effect on crop grade (transplanted rice) | J: common wind-grass, weedkilling efficacy grade (common wind-grass) | D: crabgrass, weedkilling efficacy grade (crabgrass) | K: Indian mallow, weedkilling efficacy grade (Indian mallow) | B: bulrush, weed kill grade (bulrush [2]) | c: corn, effect on crop grade (corn) | d: soybean, effect on crop grade (soybean) | E: green foxtail, weedkilling efficacy grade (green foxtail) | L: redroot pigweed, weedkilling efficacy grade (redroot pigweed) | f: beet, effect on crop grade (beet) | e: wheat, effect on crop grade (wheat) | H: black-grass, weedkilling efficacy grade (black-grass) | G: wild oat, weedkilling efficacy grade (wild oat) | I: Italian ryegrass, weedkilling efficacy grade (Italian ryegrass) | O: catchweed, weedkilling efficacy grade (catchweed) | also measured |
| --- | --- | --- | --- | --- | --- | --- | --- | --- | --- | --- | --- | --- | --- | --- | --- | --- | --- | --- | --- | --- | --- |
| COc1cc(F)nc(NC(=O)C(C)(C)N2COCN(c3ccccc3)C2=O)c1 [A-2-23] | 4 (weed kill ratio 70% or more, less than 90%) | 5 (weed kill ratio 90% or more, (practically complete withering)) | 4 (weed kill ratio 70% or more, less than 90%) | 5 (weed kill ratio 90% or more, (practically complete withering)) | 5 (weed kill ratio 90% or more, (practically complete withering)) | 3 (weed kill ratio 40% or more, less than 70%) | 5 (weed kill ratio 90% or more, (practically complete withering)) | 5 (weed kill ratio 90% or more, (practically complete withering)) | 0 (weed kill ratio 5% or less (practically no effect)) | 5 (weed kill ratio 90% or more, (practically complete withering)) | 0 (weed kill ratio 5% or less (practically no effect)) | 0 (weed kill ratio 5% or less (practically no effect)) | 5 (weed kill ratio 90% or more, (practically complete withering)) | 0 (weed kill ratio 5% or less (practically no effect)) | 3 (weed kill ratio 40% or more, less than 70%) | 0 (weed kill ratio 5% or less (practically no effect)) | 5 (weed kill ratio 90% or more, (practically complete withering)) | 4 (weed kill ratio 70% or more, less than 90%) | 5 (weed kill ratio 90% or more, (practically complete withering)) | 4 (weed kill ratio 70% or more, less than 90%) | g: rapeseed, effect on crop grade (rapeseed): 4 (weed kill ratio 70% or more, less than 90%); C (oval-leafed pondweed) weedkilling efficacy grade (oval-leafed pondweed [3]): 5 (weed kill ratio 90% or more, (practically complete withering)); A: barnyard grass, weed kill grade (barnyard grass [4]): 5 (weed kill ratio 90% or more, (practically complete withering)); C: oval-leafed pondweed, weed kill grade (oval-leafed pondweed [5]): 5 (weed kill ratio 90% or more, (practically complete withering)); A (barnyard grass) weedkilling efficacy grade (barnyard grass [6]): 5 (weed kill ratio 90% or more, (practically complete withering)); F: barnyard grass, weedkilling efficacy grade (barnyard grass [7]): 5 (weed kill ratio 90% or more, (practically complete withering)) |
| CC(C)(C(=O)Nc1cc(Oc2ccccc2)cc(Cl)n1)N1COCN(c2ccccc2)C1=O [A-2-36] | 3 (weed kill ratio 40% or more, less than 70%) | 4 (weed kill ratio 70% or more, less than 90%) | 3 (weed kill ratio 40% or more, less than 70%) | 3 (weed kill ratio 40% or more, less than 70%) | 0 (weed kill ratio 5% or less (practically no effect)) | 2 (weed kill ratio 20% or more, less than 40%) | 5 (weed kill ratio 90% or more, (practically complete withering)) | 5 (weed kill ratio 90% or more, (practically complete withering)) | 0 (weed kill ratio 5% or less (practically no effect)) | 5 (weed kill ratio 90% or more, (practically complete withering)) | 0 (weed kill ratio 5% or less (practically no effect)) | 0 (weed kill ratio 5% or less (practically no effect)) | 5 (weed kill ratio 90% or more, (practically complete withering)) | 3 (weed kill ratio 40% or more, less than 70%) | 2 (weed kill ratio 20% or more, less than 40%) | 0 (weed kill ratio 5% or less (practically no effect)) | 5 (weed kill ratio 90% or more, (practically complete withering)) | 0 (weed kill ratio 5% or less (practically no effect)) | 5 (weed kill ratio 90% or more, (practically complete withering)) | 0 (weed kill ratio 5% or less (practically no effect)) | g: rapeseed, effect on crop grade (rapeseed): 1 (weed kill ratio 5% or more, less than 20%); C (oval-leafed pondweed) weedkilling efficacy grade (oval-leafed pondweed [3]): 5 (weed kill ratio 90% or more, (practically complete withering)); A: barnyard grass, weed kill grade (barnyard grass [4]): 5 (weed kill ratio 90% or more, (practically complete withering)); C: oval-leafed pondweed, weed kill grade (oval-leafed pondweed [5]): 5 (weed kill ratio 90% or more, (practically complete withering)); A (barnyard grass) weedkilling efficacy grade (barnyard grass [6]): 5 (weed kill ratio 90% or more, (practically complete withering)); F: barnyard grass, weedkilling efficacy grade (barnyard grass [7]): 4 (weed kill ratio 70% or more, less than 90%) |
| CC(C)(C(=O)Nc1cc(F)cc(Cl)n1)N1COCN(c2ccccc2)C1=O [A-2-14] | 5 (weed kill ratio 90% or more, (practically complete withering)) | 5 (weed kill ratio 90% or more, (practically complete withering)) | 5 (weed kill ratio 90% or more, (practically complete withering)) | 5 (weed kill ratio 90% or more, (practically complete withering)) | 5 (weed kill ratio 90% or more, (practically complete withering)) | 3 (weed kill ratio 40% or more, less than 70%) | 5 (weed kill ratio 90% or more, (practically complete withering)) | 5 (weed kill ratio 90% or more, (practically complete withering)) | 5 (weed kill ratio 90% or more, (practically complete withering)) | 5 (weed kill ratio 90% or more, (practically complete withering)) | 4 (weed kill ratio 70% or more, less than 90%) | 4 (weed kill ratio 70% or more, less than 90%) | 5 (weed kill ratio 90% or more, (practically complete withering)) | 5 (weed kill ratio 90% or more, (practically complete withering)) | 4 (weed kill ratio 70% or more, less than 90%) | 4 (weed kill ratio 70% or more, less than 90%) | 5 (weed kill ratio 90% or more, (practically complete withering)) | 5 (weed kill ratio 90% or more, (practically complete withering)) | 5 (weed kill ratio 90% or more, (practically complete withering)) | 5 (weed kill ratio 90% or more, (practically complete withering)) | g: rapeseed, effect on crop grade (rapeseed): 4 (weed kill ratio 70% or more, less than 90%); C (oval-leafed pondweed) weedkilling efficacy grade (oval-leafed pondweed [3]): 5 (weed kill ratio 90% or more, (practically complete withering)); A: barnyard grass, weed kill grade (barnyard grass [4]): 5 (weed kill ratio 90% or more, (practically complete withering)); C: oval-leafed pondweed, weed kill grade (oval-leafed pondweed [5]): 5 (weed kill ratio 90% or more, (practically complete withering)); A (barnyard grass) weedkilling efficacy grade (barnyard grass [6]): 5 (weed kill ratio 90% or more, (practically complete withering)); F: barnyard grass, weedkilling efficacy grade (barnyard grass [7]): 5 (weed kill ratio 90% or more, (practically complete withering)) |
